Source: PMC10629491 (RSC Advances, 2023)
Entries after “also recorded” stand apart in the source; their conditions may differ.

Legend:
[1] = biological target: T1, mushroom tyrosinase (Agaricus bisporus, UniProt C7FF04); assay: Enzymatic assay for tyrosinase inhibition; type: biochemical; details: read-out: Inhibition% ± SEM
[2] = DPPH free radical scavenging assay; details: 517 nm; for DPPH (%): radical scavenging, concentration not given; for EC50: read-out: EC50 (DPPH radical scavenging)
[3] = biological target: T1, mushroom tyrosinase; assay: Determination of the inhibition type; type: biochemical; details: Lineweaver-Burk

T1 sequence (C7FF04 2-392): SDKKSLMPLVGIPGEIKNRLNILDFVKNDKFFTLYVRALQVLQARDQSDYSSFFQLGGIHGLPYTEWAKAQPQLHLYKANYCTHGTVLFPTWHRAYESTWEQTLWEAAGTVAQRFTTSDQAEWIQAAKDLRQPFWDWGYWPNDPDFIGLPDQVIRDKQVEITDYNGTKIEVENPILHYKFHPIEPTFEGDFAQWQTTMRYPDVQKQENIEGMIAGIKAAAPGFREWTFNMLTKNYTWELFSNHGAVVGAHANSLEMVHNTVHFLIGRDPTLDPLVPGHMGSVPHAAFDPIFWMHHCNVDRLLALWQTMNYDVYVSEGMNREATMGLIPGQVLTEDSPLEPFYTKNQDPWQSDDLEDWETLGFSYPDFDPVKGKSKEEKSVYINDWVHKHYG

SMILES	inhibition at 50 µM [1] [%]	DPPH (%) [2] [%]	EC50 [2] [µM]	Km value with increasing inhibitor concentration ([3]; L-Dopa)	Vmax with increasing inhibitor concentration ([3]; L-Dopa)	inhibition type ([3]; inhibitor 0, 12.64, 25.29, 50.58 μM, L-Dopa 0.5-10.0 mM)
Cc1c(O)c(=O)ccn1-c1cccc(C(=O)NN=Cc2ccc([N+](=O)[O-])s2)c1 [6j, 3-(3-hydroxy-2-methyl-4-oxopyridin-1(4H)-yl)-N'-((5-nitrothiophen-2-yl)methylene)benzohydrazide]	40.4 ± 5	42.74	383 ± 120			
Cc1ccc(C=NNC(=O)c2cccc(-n3ccc(=O)c(O)c3C)c2)cc1 [6d, 3-(3-hydroxy-2-methyl-4-oxopyridin-1(4H)-yl)-N′-(4-methylbenzylidene)benzohydrazide]	49 ± 7.51	39.13	369 ± 10			
Cc1c(O)c(=O)ccn1-c1cccc(C(=O)NN=Cc2ccc(Cl)cc2Cl)c1 [6g, 3-(3-hydroxy-2-methyl-4-oxopyridin-1(4H)-yl)-N′-(2,4-dichlorobenzylidene)benzohydrazide]	28.1 ± 3.97	39.11	191 ± 70			
Cc1c(O)c(=O)ccn1-c1cccc(C(=O)NN=Cc2ccc(C#N)cc2)c1 [6c, 3-(3-hydroxy-2-methyl-4-oxopyridin-1(4H)-yl)-N′-(4-cyanobenzylidene)benzohydrazide]	30.8 ± 2.85	43.67	216 ± 80			
O=c1c(O)c(-c2ccc(O)c(O)c2)oc2cc(O)cc(O)c12 [Quercetin, reference compound]		74.33	8.9			
Cc1c(O)c(=O)ccn1-c1cccc(C(=O)NN=Cc2cc([N+](=O)[O-])ccc2Cl)c1 [6h, 3-(3-hydroxy-2-methyl-4-oxopyridin-1(4H)-yl)-N′-(2-chloro-5-nitrobenzylidene)benzohydrazide]	11.4 ± 2.59	31.91	> 400			
Cc1c(O)c(=O)ccn1-c1cccc(C(=O)NN=Cc2ccccc2[N+](=O)[O-])c1 [6a, 3-(3-hydroxy-2-methyl-4-oxopyridin-1(4H)-yl)-N′-(2-nitrobenzylidene)benzohydrazide]	46.1 ± 8.21	77.15	32 ± 10			
Cc1c(O)c(=O)ccn1-c1cccc(C(=O)NN=Cc2ccc(C(C)C)cc2)c1 [6e, 3-(3-hydroxy-2-methyl-4-oxopyridin-1(4H)-yl)-N′-(4-isopropylbenzylidene)benzohydrazide]	41.7 ± 4.07	61.44	14 ± 10			
Cc1c(O)c(=O)ccn1-c1cccc(C(=O)NN=Cc2ccc(F)cc2)c1 [6b, 3-(3-hydroxy-2-methyl-4-oxopyridin-1(4H)-yl)-N′-(4-fluorobenzylidene)benzohydrazide]	43.1 ± 3.41	71.42	12			
COc1cccc(C=NNC(=O)c2cccc(-n3ccc(=O)c(O)c3C)c2)c1[N+](=O)[O-] [6f, 3-(3-hydroxy-2-methyl-4-oxopyridine-1(4H)-yl)-N′-(3-methoxy-2-nitrobenzylidene)benzohydrazide]	34.8 ± 3.83	43.67	168 ± 30			
Cc1c(O)c(=O)ccn1-c1cccc(C(=O)NN=Cc2cc(Br)ccc2O)c1 [6i, 3-(3-hydroxy-2-methyl-4-oxopyridin-1(4H)-yl)-N′-(5-bromo-2-hydroxybenzylidene)benzohydrazide]	49.6 ± 12.6	42.64	185 ± 130	increased	not affected	competitive inhibitor; also recorded: competitive type of inhibition
